Structures can show the parent of a compound that is named as a salt. Where two headings read alike, the source gives them in different places.
Legend:
Type in all cases: cell-based
[1] = test system: HIV-1 virus strain JR-FL; test: Inhibition of infection of primary HIV-1 isolate JR-FL in PBMCs (p24 antigen ELISA); conditions: Human immunodeficiency virus 1, 192 h; PBMC infected with virus JR-FL, p24 production at day 8
Excerpt: (§1) Monocyte/macrophages represent a major reservoir of HIV-1 in the infected human host. See L. Epstein et al., AIDS Res. 14, 447 (1984). However, these cells tend to be resistant to dideoxynucleoside prodrugs due to low levels of kinases needed to activate the prodrugs. See C. Pemo et al., J. Exp. Med. 168, 1111 (1984). To test the compounds described herein in these cells, PBMC cells infected for 7 days with two different virus strains (20678 and JR-FL) and under PHA stimulation for 4 days were treated with AZT, FOZ ISO 850, FOZ ISO 851, and FOZ MIX Na.
(§2) PBMC's were prepared as follows: 50 ml of whole human blood was centrifuged at 1000 g for 15 min, supernatant (plasma) removed, and cells resuspended in 80 ml PBS. 20 ml resuspended blood was then layered onto 25 ml Ficoll-Paque Plus (GE Healthcare, Uppsala Sweden), and centrifuged at 400 g for 30 min. The PBMC layer at the interface was collected, washed two times with 20 ml PBS, and resuspended in 20 ml RPMI/10% FBS.
(§3) Day 5-Stimulation of PBMC: PBMCs were grown in 50 ml of stimulation medium (RPMI, 15% FBS, 5 units/ml of IL-2, and 6 ug/ml of PHA) for 5 days.
(§4) Day 1-Infection of PBMC: PBMCs were counted with a hemacytometer. Stimulation medium was removed by centrifugation at RT, 1,500 rpm/5′ and cells resuspended in growth medium (RPMI, 15% of FBS, 10 units/ml of IL-2). PBMCs were infected with JR-FL or 20678 as follows: for one 96-well plate, 20 millions cells were infected with 1 ml of each virus (use 10 ul of virus and 200,000 cell per well) in a 4.5 ml-volume in a 50-ml conical tube. Cells were incubated for 3 hrs at 37 °C. with frequent shaking. Aliqouts of 50 ul of a 4× solution of the compounds to be tested were added to the 96-well plates. After 3 hr of incubation, infected cells were washed two times with PBS and one time with culture medium by spinning down the cells at 1500 rpm for 5 minutes at room temperature. After the last wash cells were resuspended in 15 ml of growth medium. 150 ul of cell suspension were delivered into each well. Cells were incubated for 7 days at 37 °C.
(§5) Day 5-Medium change: Cells were resuspended by pipetting and 100 ul of medium was removed. 100 ul of fresh medium was added with 1× compound. Cells were incubated for 3 more days at 37° C.
(§6) Day 8-p24 assay: At day 8 the p24 production was measured using the HIV-1 p24 Antigen ELISA (Zeptometrix) according to manufacturer instructions.

[2] = test system: HIV-1 virus strain 20678; test: Inhibition of infection of primary HIV-1 isolate 20678 in PBMCs (p24 antigen ELISA); conditions: for Selectivity Index: GI50 (Diff.CD34+) divided by EC50 (PBMC), values fit AVG GI50 / EC50 of virus 20678; for EC50: Human immunodeficiency virus 1, 192 h, PBMC infected with virus 20678, p24 production at day 8
Excerpt: as §1, §2, §3, §4, §5, §6

[3] = test system: Diff.CD34+; test: Inhibition of cell growth (GI50) in Diff.CD34+ cells, 7-d
[4] = as above; conditions: Diff.CD34+ cells
[5] = 7-d, experiment of Aug. 6, 2007, concentration required for 50% inhibition of cell growth, read-out: GI50 (μM) Aug. 6, 2007 7-d
[6] = 7-d, experiment of Aug. 13 2007, concentration required for 50% inhibition of cell growth, read-out: GI50 (μM Aug. 13 2007 7-d)
[7] = average of the two 7-d experiments, read-out: AVG GI50

Row | SMILES | EC50 [1] [nM] | EC50 [2] [nM] | Selectivity Index [2] | GI50 [3, 5] [µM] | GI50 [3, 6] [µM] | GI50 [3, 7] [µM] | GI50 at 7 d [4, 5] [µM] | GI50 at 7 d [4, 6] [µM] | GI50 at 7 d [4, 7] [µM]
1 | CCCCCCCCCCCCSCC(COP(=O)(O)OC[C@H]1O[C@@H](n2cc(C)c(=O)[nH]c2=O)C[C@@H]1N=[N+]=[N-])OCCCCCCCCCC (stereo partly drawn) [FOZ ISO 850, Phosphoric Acid (2S,3S,5R)-3-azido-5-(5-methyl-2,4-dioxo-3,4-dihydro-2H-pyrimidin-1-yl)-tetrahydro-furan-2-ylmethyl ester 2-decyloxy-3-dodecylsulfanyl-propyl ester] | 474 | 279 | 11.06 | 2.2 | 4 | 3.09 |  |  | 
2 | CCCCCCCCCCCCSC[C@@H](COP(=O)(O)OC[C@H]1O[C@@H](n2cc(C)c(=O)[nH]c2=O)C[C@@H]1N=[N+]=[N-])OCCCCCCCCCC [FOZ ISO 851 Na, Phosphoric Acid (2S,3S,5R)-3-azido-5-(5-methyl-2,4-dioxo-3,4-dihydro-2H-pyrimidin-1-yl)-tetrahydro-furan-2-ylmethyl ester (R)-2-decyloxy-3-dodecylsulfanyl-propyl ester] |  |  | 4.5 | 2.2 | > 10 | 2.2 |  |  | 
3 | CCCCCCCCCCCCSCC(COP(=O)(O)OC[C@H]1O[C@@H](n2cc(C)c(=O)[nH]c2=O)C[C@@H]1N=[N+]=[N-])OCCCCCCCCCC (stereo partly drawn) [FOZ ISO 850 Na, Phosphoric Acid (2S,3S,5R)-3-azido-5-(5-methyl-2,4-dioxo-3,4-dihydro-2H-pyrimidin-1-yl)-tetrahydro-furan-2-ylmethyl ester 2-decyloxy-3-dodecylsulfanyl-propyl ester] |  |  | 14.3 |  | > 10 |  | 4 |  | 4

More lines, main results first:

Row | EC50 [1] [nM] | EC50 [2] [nM] | SMILES | Selectivity Index [2] | GI50 [3, 5] [µM] | GI50 [3, 6] [µM] | GI50 [3, 7] [µM] | GI50 at 7 d [4, 5] [µM] | GI50 at 7 d [4, 6] [µM] | GI50 at 7 d [4, 7] [µM]
4 | 89.8 | 76 | Cc1cn([C@H]2C[C@H](N=[N+]=[N-])[C@@H](CO)O2)c(=O)[nH]c1=O [AZT, 3′-azido-3′-deoxythymidine, reference compound] | 1.8 |  |  |  | 0.07 | 0.2 | 0.14
5 | 1140 | 1410 | CCCCCCCCCCCCSC[C@H](COP(=O)(O)OC[C@H]1O[C@@H](n2cc(C)c(=O)[nH]c2=O)C[C@@H]1N=[N+]=[N-])OCCCCCCCCCC (mixture of isomers) [FOZ MIX Na, Phosphoric acid (2S,3S,5R)-3-azido-5-(5-methyl-2,4-dioxo-3,4-dihydro-2H-pyrimidin-1-yl)-tetrahydro-furan-2-ylmethyl ester (S)-2-decyloxy-3-dodecylsulfanyl-propyl ester sodium salt] |  |  |  |  | 1.5 | 2.2 | 1.83
6 | 504 | 294 | CCCCCCCCCCCCSC[C@@H](COP(=O)(O)OC[C@H]1O[C@@H](n2cc(C)c(=O)[nH]c2=O)C[C@@H]1N=[N+]=[N-])OCCCCCCCCCC [FOZ ISO 851, Phosphoric Acid (2S,3S,5R)-3-azido-5-(5-methyl-2,4-dioxo-3,4-dihydro-2H-pyrimidin-1-yl)-tetrahydro-furan-2-ylmethyl ester (R)-2-decyloxy-3-dodecylsulfanyl-propyl ester] | 3.5 | 0.85 | 1.2 | 1.03 |  |  | 

Reference: patent US20080249066A1, “ANTIVIRAL COMPOUNDS AND COMPOSITIONS” (ARDEA BIOSCIENCES, INC., priority 2007, published 2008)
